Laboratory results: paper PMC6667408, “Discovery and preclinical characterization of [^18F]PI-2620, a next-generation tau PET tracer for the assessment of tau pathology in Alzheimer’s disease and other tauopathies” (European Journal of Nuclear Medicine and Molecular Imaging, 2019)

Columns and labels:
[1] = biological target: T1, MAO-B (Homo sapiens, UniProt P27338); experiment: radioligand displacement of [3H]deprenyl, filtration; assay type: binding; details: [3H]deprenyl radioligand, PBS, 0.1% BSA, 2% DMSO
T1 construct: gene MAOB; native enzyme in human non-demented control (NDC) brain homogenate
T1 sequence (P27338 2-520): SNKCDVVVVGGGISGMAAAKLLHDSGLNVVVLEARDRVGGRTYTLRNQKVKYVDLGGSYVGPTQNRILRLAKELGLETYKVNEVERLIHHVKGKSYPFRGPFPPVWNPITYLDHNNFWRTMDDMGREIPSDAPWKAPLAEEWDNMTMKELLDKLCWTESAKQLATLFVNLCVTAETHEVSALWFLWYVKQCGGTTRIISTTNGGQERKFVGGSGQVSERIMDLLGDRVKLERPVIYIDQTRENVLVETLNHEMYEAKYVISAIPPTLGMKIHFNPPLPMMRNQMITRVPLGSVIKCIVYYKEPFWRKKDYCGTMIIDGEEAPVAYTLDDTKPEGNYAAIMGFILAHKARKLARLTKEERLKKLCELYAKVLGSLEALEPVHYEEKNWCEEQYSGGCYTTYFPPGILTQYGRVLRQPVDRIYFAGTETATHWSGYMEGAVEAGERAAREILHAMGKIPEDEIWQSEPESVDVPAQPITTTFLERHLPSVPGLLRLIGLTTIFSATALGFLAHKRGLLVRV

[2] = biological target: T2, MAO-A (Mus musculus, UniProt Q64133); experiment: radioligand displacement of […]FEH, filtration; assay type: binding; details: [18F]fluoroethylharmine radioligand, PBS, 0.1% BSA, 2% DMSO
T2 construct: gene Maoa; native enzyme in mouse brain homogenate, 20 ug/well
T2 sequence (Q64133 1-526): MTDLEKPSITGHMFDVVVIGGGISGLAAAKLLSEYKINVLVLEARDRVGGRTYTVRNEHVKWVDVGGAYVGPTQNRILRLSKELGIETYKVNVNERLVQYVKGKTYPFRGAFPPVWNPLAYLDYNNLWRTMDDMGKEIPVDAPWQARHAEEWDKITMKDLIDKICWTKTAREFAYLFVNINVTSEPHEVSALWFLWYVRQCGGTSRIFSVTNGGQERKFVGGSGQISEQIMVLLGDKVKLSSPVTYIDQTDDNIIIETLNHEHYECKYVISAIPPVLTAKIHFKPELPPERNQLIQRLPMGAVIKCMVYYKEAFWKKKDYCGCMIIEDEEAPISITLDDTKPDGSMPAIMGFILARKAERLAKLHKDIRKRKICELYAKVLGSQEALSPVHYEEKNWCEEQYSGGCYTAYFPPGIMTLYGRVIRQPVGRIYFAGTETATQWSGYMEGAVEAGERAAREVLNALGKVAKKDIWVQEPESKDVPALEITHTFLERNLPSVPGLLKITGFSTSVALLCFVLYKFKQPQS

| [^18F]FEH MAO-A pIC50^a [2] | [^3H]Deprenyl MAO-B pIC50^c [1] | Structure (SMILES) | pIC50 [1] |
| --- | --- | --- | --- |
|  |  | CNc1ccc(-c2ccc3cc(OCC(O)CF)ccc3n2)cn1 (stereo not drawn) [THK5151, reference compound] | 7.4 |
| 7.7 | 6.8 | Fc1ccc(-c2ccc3c(c2)[nH]c2ccncc23)cn1 [compound 1, AV-1451] |  |
| 6.3 |  | Fc1ccc(-c2ccc3c(n2)[nH]c2ccncc23)cn1 [compound 3, RO6958948] |  |
| 6.1 |  | Fc1cnccc1-c1ccc2c(n1)[nH]c1ccncc12 [compound 8, 8] |  |
| 6.6 | 6.5 | Fc1cccc(-c2ccc3c(n2)[nH]c2ccncc23)n1 [compound 9, 9] |  |
| 7.1 | 6.5 | Fc1ccc(-c2ccc3c(n2)[nH]c2ccncc23)nc1 [compound 10, 10] |  |
